From patent publication US11040009B2, “Expansile crosslinked polymersome for ph-sensitive delivery of anticancer drugs” (Mayo Foundation for Medical Education and Research, priority 2016, dated 2021) come the findings set out here.

The subject of test [1] is HeLa cells. As to the kind of experiment: Cell viability by MTS assay. Type of test: cell-based. The following applies: 10 μg/mL, FIG. 10. As for the experimental part: HeLa cells were used as a model cancer cell for cytotoxicity evaluation. Trypsinized HeLa cells were seeded onto 48-well tissue culture polystyrene (TCPS) plates at 10,000 cells cm^−2. Cells were then cultured in Dulbecco's Modified Eagle's Medium (DMEM) supplemented with FBS, 100 U/mL penicillin, 2 mM L-glutamine, and 0.1 mg/mL streptomycin for 24 h to allow adhesion. To evaluate the cytotoxicity of PEG-Fu-DiTT polymersomes, empty samples without loaded drugs were prepared, dialyzed against phosphate-buffered saline (PBS) for 2 days, and lyophilized for 3 days. The dried polymersomes were then incubated with HeLa cells at concentrations of 0.1, 0.5, 1.0 and 2.0 mg/mL for 3 days. Wells seeded with the same HeLa cell density but without added polymersomes were used as positive controls. The relative cell densities in each group were determined by MTS assay (CellTiter 96 Aqueous One Solution, Promega, Madison, Wis.) by comparing the optical density (OD) value to that of positive controls (which were set at 100% cell density). To evaluate the cancer killing effect, similar cell culture procedures were used by adding DOX-loaded polymersomes or free drugs at concentrations of 0.01, 0.1, 0.5, 1, 5, 10 and 50 μg/mL.

The test system of test [2] is HeLa cells. As to the kind of experiment: Cellular uptake by DOX fluorescence imaging. Format: cell-based. The following applies: 10 μg/mL. As for the experimental part:
HeLa cells were co-cultured with DOX-loaded polymersomes in DMEM at a drug concentration of 10 μg/mL, as described in Example 6. At time points of 1, 2, 4 hours, the culture medium was removed and cells were washed with PBS three times and then fixed in 4% paraformaldehyde. After 10 min, paraformaldehyde was removed and cells were washed three times with PBS then stained with DAPI (4′,6-diamidino-2-phenylindole) for 2 min. DOX fluorescence from polymersomes and DAPI fluorescence from cellular nuclei were visualized and photographed by Axiovert 25 Zeiss light microscope. DOX fluorescence from polymersomes appeared red, and DAPI fluorescence from cellular nuclei appeared blue.
Cellular uptake of DOX-PS particles were investigated through imaging of DOX fluorescence after 1, 3 and 5 hours of co-culture with HeLa cells. […] The first, second, and third rows correspond to incubation times of 1, 3, and 5 hours respectively.

The structures appear in SMILES notation.

As for `COc1cccc2c1C(=O)c1c(O)c3c(c(O)c1C2=O)C[C@@](O)(C(=O)CO)C[C@@H]3O[C@H]1C[C@H](N)[C@H](O)[C@H](C)O1` [unencapsulated DOX, doxorubicin], the “effect on cancer cell viability” value in the test on HeLa cells [1] is reported as “inhibition effect”. For the same compound, the “DOX fluorescence in cells” value with HeLa cells [2] (1 hour) was “red fluorescence”; in the test on HeLa cells [2] (3 hour), “slight increase in intensity”; in the test with HeLa cells [2] (5 hour) it was “slight increase in intensity”.
